In article PMC10587169, “Tuning aminopolycarboxylate chelators for efficient complexation of trivalent actinides” (Scientific Reports, 2023):
Like-named read-outs stand apart in the source and are kept apart here.

Test: Potentiometric titration, acid dissociation constants
Type: physicochemical
Protocol: All potentiometric titrations were run using a Mettler Toledo T90 autotitrator equipped with an Orion Ross Semi-micro glass electrode with the junction stabilization solution changed to 5.0 M NaCl to prevent precipitation with perchlorate media. All titrations were performed under a hydrated nitrogen atmosphere. The forward titration measurements (acidic titrand, basic titrant) of H4octapa in nitrate electrolyte medium were performed as described previously due to the limited solubility of this ligand in a 2 M (Na^+/H^+)ClO4 medium. Acid dissociation constants of H4octapa in perchlorate electrolyte medium were also determined by titrating in reverse (basic titrand, acidic titrant) to alleviate the solubility concerns. Titrations of H4pypa-peg were performed in reduced-volume glass titration cups (10 mL nominal) due to the limited supply of this ligand. All potentiometric titrations were run in triplicate. The choice of using p[H^+] was explained in Heathman et al.[15], and the calibration of the p[H^+] scale utilized Gran analysis through titration of a strong acid with the base used in the potentiometric titrations[29]–[31]. Potentiometric titration data was modeled and analyzed using Hyperquad2013 to determine acid dissociation and metal complexation stability constants[32],[33].
Changes in hydrogen ion concentration were monitored using a glass electrode for a solution of H4octapa as either NaOH or HClO4 were titrated into the solutions. […] The experimental potentiometric curve collected for a forward titration of H4octapa in (Na^+/H^+)NO3 is presented in Fig. 3A, alongside the distribution curves for the identified HnL species. Following those studies, the acid/base conditions were reversed and octapa^4− was titrated in 2.0 M (Na^+/H^+)ClO4 using HClO4 (SI Figure S7). The potentiometric curves are well respresented by five proton dissociation equilibria. The calculated equilibrium constants correspond with the protonation reactions for two aliphatic amines, two pyridine nitrogens, and one carboxylate group with the protonation sequence described by Eq. (2). The acid dissociation constants (pKa = − log10Ka) for H4octapa are reported in Table 1 alongside previously reported values in the literature.
The experimental potentiometric titration curve and the distribution curves for the associated HnL species for H4pypa-peg are presented in Fig. 3B. […] For comparison, the protonation equilibria of H4edta were also studied in 2.0 M (Na^+/H^+)ClO4. The pKa values for H4edta are listed in Table 2 and collected potentiometric titration curves (forward and reverse) are presented in SI Figure S8. For H4pypa-peg coordination pocket the protonation of H9L^5+, H7L^3+, and H6L^2+ cannot be characterized using a glass electrode. The H6L^2+ species likely represents a protonated carboxylate group, while H5L^+ and H4L may describe the pyridinecarboxylate nitrogens. The equilibrium involving H3L^− likely describes the dissociation of the protonated pyridine nitrogen, while the two most basic species in this ligand (HL^3− and H2L^2−) are likely the bridging amines in the H4pypa-peg backbone. Equation (3) describes the protonation sequence for H4pypa-peg.3 H10-aL^+6-a⇆H9-aL^+5-a+H^+Ka=H^+·H9-aL^+5-a/H10-aL^+6-aa=1…9

[1] = aqueous 2.0 M (Na+/H+)ClO4 electrolyte solution, I = 2.0 M (Na+/H+)ClO4 at 20.0 °C, read-out: pKa H2L species
[2] = aqueous 2.0 M (Na+/H+)ClO4 electrolyte solution, I = 2.0 M (Na+/H+)ClO4 at 20.0 °C, read-out: pKa H3L species
[3] = aqueous 2.0 M (Na+/H+)ClO4 electrolyte solution, I = 2.0 M (Na+/H+)ClO4 at 20.0 °C, read-out: pKa H4L species
[4] = aqueous 2.0 M (Na+/H+)ClO4 electrolyte solution, I = 2.0 M (Na+/H+)ClO4 at 20.0 °C, read-out: pKa H5L species
[5] = aqueous 2.0 M (Na+/H+)ClO4 electrolyte solution, I = 2.0 M (Na+/H+)ClO4 at 20.0 °C, read-out: pKa H6L species
[6] = aqueous 2.0 M (Na+/H+)ClO4 electrolyte solution, I = 2.0 M (Na+/H+)ClO4 at 20.0 °C, read-out: pKa HL species

| SMILES | pKa [1] | pKa [2] | pKa [3] | pKa [4] | pKa [5] | pKa (aqueous 2.0 M (Na+/H+)ClO4 electrolyte solution, I = 2.0 M (Na+/H+)ClO4 at 20.0 °C, read-out: pKa H7L species) | pKa [6] | pKa (aqueous 2.0 M (Na+/H+)NO3 electrolyte solution, I = 2.0 M (Na+/H+)NO3 at 25.0 °C, read-out: pKa H2L2-) | pKa (aqueous 2.0 M (Na+/H+)NO3 electrolyte solution, I = 2.0 M (Na+/H+)NO3 at 25.0 °C, read-out: pKa H3L-) | pKa (aqueous 2.0 M (Na+/H+)NO3 electrolyte solution, I = 2.0 M (Na+/H+)NO3 at 25.0 °C, read-out: pKa H4L(aq)) | pKa (aqueous 2.0 M (Na+/H+)NO3 electrolyte solution, I = 2.0 M (Na+/H+)NO3 at 25.0 °C, read-out: pKa H5L+) | pKa (aqueous 2.0 M (Na+/H+)NO3 electrolyte solution, I = 2.0 M (Na+/H+)NO3 at 25.0 °C, read-out: pKa HL3-) | pKa (aqueous 2.0 M (Na+/H+)ClO4 electrolyte solution, I = 2.0 M (Na+/H+)ClO4 (Table 2), read-out: pKa H2L2-) | pKa (aqueous 2.0 M (Na+/H+)ClO4 electrolyte solution, I = 2.0 M (Na+/H+)ClO4 (Table 2), read-out: pKa H3L-) | pKa (aqueous 2.0 M (Na+/H+)ClO4 electrolyte solution, I = 2.0 M (Na+/H+)ClO4 (Table 2), read-out: pKa H4L(aq)) | pKa (aqueous 2.0 M (Na+/H+)ClO4 electrolyte solution, I = 2.0 M (Na+/H+)ClO4 (Table 2), read-out: pKa H5L+) | pKa (aqueous 2.0 M (Na+/H+)ClO4 electrolyte solution, I = 2.0 M (Na+/H+)ClO4 (Table 2), read-out: pKa H6L2+) | pKa (aqueous 2.0 M (Na+/H+)ClO4 electrolyte solution, I = 2.0 M (Na+/H+)ClO4 (Table 2), read-out: pKa HL3-) |
| --- | --- | --- | --- | --- | --- | --- | --- | --- | --- | --- | --- | --- | --- | --- | --- | --- | --- | --- |
| O=C(O)CN(CCN(CCN(CC(=O)O)CC(=O)O)CC(=O)O)CCN(CC(=O)O)CC(=O)O [H6ttha, triethylenetetraamine-N,N,N',N'',N''',N'''-hexaacetic acid] | 8.67 | 6.27 | 4.12 | 2.7 | 2.19 | 1.86 | 9.48 |  |  |  |  |  |  |  |  |  |  |  |
| O=C(O)CN(CCN(CC(=O)O)Cc1cccc(C(=O)O)n1)Cc1cccc(C(=O)O)n1 [H4octapa, 6,6′-((ethane-1,2-diylbis–((carboxymethyl)azanediyl))bis–(methylene))dipicolinic acid] | 5.57 | 3.82 | 3.18 | 1.63 |  |  | 8.41 | 5.27 | 3.63 | 3 | 1.63 | 8.16 |  |  |  |  |  |  |
| O=C(O)CN(CCN(CC(=O)O)CC(=O)O)CCN(CC(=O)O)CC(=O)O [H5dtpa, diethylenetriamine-N,N,N',N'',N''-pentaacetic acid] | 8.31 | 5.57 | 4.38 | 2.53 | 2.41 |  | 9.5 |  |  |  |  |  |  |  |  |  |  |  |
| O=C(O)CN(Cc1cc(-c2cn(CCOCCOCCO)nn2)cc(CN(CC(=O)O)Cc2cccc(C(=O)O)n2)n1)Cc1cccc(C(=O)O)n1 [H4pypa-peg, 6,6'-((((4-(1-(2-(2-(2-hydroxyethoxy)ethoxy)ethyl)-1H-1,2,3-triazol-4-yl)pyridine-2,6-diyl)bis–(methylene))bis–((carboxymethyl)azanediyl))bis–(methylene)) dipicolinic acid] |  |  |  |  |  |  |  |  |  |  |  |  | 6.45 | 3.92 | 3.37 | 2.45 | 1.43 | 7.44 |
